Source: publication PMC9981942, “Pharmacokinetics and tissue distribution of Ramulus Mori (Sangzhi) alkaloids in rats and its effects on liver enzyme activity” (Frontiers in Pharmacology, 2023)
Read-outs that look alike come from different tables or passages of the source.

Legend:
[1] = Tissue distribution after single oral SZ-A (40 mg/kg) in SD rats, plasma and 12 tissues; assay type: in vivo; conditions: for half-life / AUC(0-t) / Tmax / Cmax: rat; for AUC(0-t): n=5, read-out: AUC(0-t)
Method: Twenty SD rats were randomly classified into four groups corresponding to four-time points (5 and 30 min, 4 and 12 h) (n = 20; 5 animals per time point) that received SZ-A solution (40 mg/kg) via oral administration. After the completion of dose administration, plasma and tissue samples (derived from the heart, liver, spleen, lung, kidney, aortic blood vessels, brown adipose tissue, subcutaneous adipose tissue, abdominal adipose tissue, muscle (thigh skeletal muscle), pancreas, and brain) were collected at predetermined time points. Twenty-eight ICR mice were randomly classified into four groups (n = 7 per group) corresponding to four-time points (5 and 30 min, 4 and 12 h) that received SZ-A solution (20 mg/kg) via oral administration. After the completion of dose administration, tissue samples (derived from the heart, liver, spleen, lung, kidney, aortic blood vessels, brown adipose tissue, abdominal adipose tissue, muscle (thigh skeletal muscle), pancreas, and brain) were collected at predetermined time points.
Collected tissue samples were washed with normal saline. The surface moisture was removed by blotting gently with filter paper, and the weight was recorded. After adding an appropriate amount of normal saline, these tissue samples were ground into homogenates using a cryogenic grinder (JX-CL, Shanghai Jingxin, Shanghai, China). The obtained homogenates were stored at −80°C until LC-MS/MS analysis.
(§1) Primary pharmacokinetic parameters, including Cmax, Tmax, area under the plasma concentration-time curve (AUC), t1/2, clearance rate, and the apparent volume of distribution, were calculated using DAS 3.2.8 (Bio Guider Co., Shanghai, China).

rat CYP2C11 = target: T1, rat CYP2C11 (Rattus norvegicus, UniProt P08683); assay: Inhibition of CYP450s in rat liver microsomes, probe mephenytoin; conditions: RLMs; SZ-A 8.899 μg/mL, DNJ 20 μM, FA 5 μM, DAB 8 μM
T1 sequence (P08683 1-500): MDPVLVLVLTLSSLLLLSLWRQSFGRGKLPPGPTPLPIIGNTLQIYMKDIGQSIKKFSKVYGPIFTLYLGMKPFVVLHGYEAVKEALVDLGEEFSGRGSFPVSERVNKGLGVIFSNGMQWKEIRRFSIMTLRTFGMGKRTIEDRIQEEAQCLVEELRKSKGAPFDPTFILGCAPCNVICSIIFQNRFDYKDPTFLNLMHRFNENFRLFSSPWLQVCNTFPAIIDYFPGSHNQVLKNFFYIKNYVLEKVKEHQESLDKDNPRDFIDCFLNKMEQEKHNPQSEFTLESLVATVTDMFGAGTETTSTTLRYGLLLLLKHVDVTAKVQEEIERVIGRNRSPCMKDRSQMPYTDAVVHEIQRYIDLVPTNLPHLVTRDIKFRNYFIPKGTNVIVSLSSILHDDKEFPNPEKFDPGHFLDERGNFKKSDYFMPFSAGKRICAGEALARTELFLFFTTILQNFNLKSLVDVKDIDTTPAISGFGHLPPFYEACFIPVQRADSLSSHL

[2] = Pharmacokinetic study: plasma levels after oral SZ-A in SD rats (LC-MS/MS, DAS 3.2.8); assay type: in vivo; conditions: plasma, plasma; for Tmax / AUC(0-inf) / AUC(0-t) / Cmax / half-life / MRT last / MRT inf: both sexes, rat; for Tmax: SD, po; for AUC(0-inf) / AUC(0-t) / Cmax / half-life / CLz / VRT(0-t) / VRT(0-∞) / Vz: n=8; for MRT last: n=8, read-out: MRT(0-t); for MRT inf: n=8, read-out: MRT(0-∞)
Method: Twenty-four SD rats were fasted for 12 h (free access to water) and randomly classified into three groups (n = 8; half male and female) that received different doses of SZ-A solution (25, 50, and 200 mg/kg) via oral administration. After completion of dose administration, blood samples (0.3 mL) were collected through an indwelling catheter from the jugular vein at predetermined time points (5, 15, 30, and 45 min, 1, 2, 4, 8, and 24 h). The blood was centrifuged at 5,000 rpm for 10 min to separate the plasma. All plasma samples were stored frozen at −80°C until liquid chromatography coupled to tandem mass spectrometry (LC-MS/MS) analysis (AB SCIEX Triple Quad™ 4,500 mass spectrometer, Applied Biosystems Inc., United States).
as §1

[3] = Sprague-Dawley, muscle (thigh skeletal muscle), Muscle, n=5
[4] = Subcutaneous adipose tissue, n=5

Compound: OC[C@H]1NCC[C@@H](O)[C@@H]1O [FA, fagomine]
- time of maximum drug concentration in heart, muscle, lung, and aortic vessels [1]: 5 min
- tissues with the highest concentrations [1]: kidney, followed by the liver, aortic vessels, and brown adipose tissue
- CLz ([1]; Plasma, n=5): 3.95 ± 0.90 L/h/kg
- Vz ([1]; Plasma, n=5): 4.39 ± 2.04 L/kg
- half-life ([1]; Sprague-Dawley, Brown adipose tissue, n=5): 139 ± 139 min
- AUC(0-t) ([1]; Sprague-Dawley, Brown adipose tissue): 1480 ± 380 ng·h/mL
- Tmax ([1]; Sprague-Dawley, Brown adipose tissue, n=5, read-out: Tmax): 19.8 ± 13.8 min
- Cmax ([1]; Sprague-Dawley, Kidney, n=5): 8970 ± 1680 ng/mL
- half-life ([1]; Sprague-Dawley, Kidney, n=5): 139 ± 72.6 min
- AUC(0-t) ([1]; Sprague-Dawley, Kidney): 27000 ± 8880 ng·h/mL
- Tmax ([1]; Sprague-Dawley, Kidney, n=5, read-out: Tmax): 25.2 ± 11.4 min
- Cmax ([1]; Sprague-Dawley, Liver, n=5): 1130 ± 187 ng/mL
- half-life ([1]; Sprague-Dawley, Liver, n=5): 36 ± 0.6 min
- AUC(0-t) ([1]; Sprague-Dawley, Liver): 2990 ± 1030 ng·h/mL
- Tmax ([1]; Sprague-Dawley, Liver, n=5, read-out: Tmax): 25.2 ± 11.4 min
- Cmax ([1]; Sprague-Dawley, Lung, n=5): 248 ± 5.46 ng/mL
- half-life ([1]; Sprague-Dawley, Lung, n=5): 31.2 ± 15.6 min
- Tmax ([1]; Sprague-Dawley, Lung, n=5, read-out: Tmax): 13.2 ± 14.4 min
- Cmax ([1]; Sprague-Dawley, Pancreas, n=5): 96.9 ± 13.9 ng/mL
- half-life ([1]; Sprague-Dawley, Pancreas, n=5): 42 ± 2.4 min
- AUC(0-t) ([1]; Sprague-Dawley, Pancreas): 705 ± 118 ng·h/mL
- Tmax ([1]; Sprague-Dawley, Pancreas, n=5, read-out: Tmax): 114 ± 115 min
- Cmax ([1]; Sprague-Dawley, Plasma, n=5): 692 ± 135 ng/mL
- half-life ([1]; Sprague-Dawley, Plasma, n=5): 46.8 ± 22.8 min
- AUC(0-t) ([1]; Sprague-Dawley, Plasma): 1800 ± 421 ng·h/mL
- Tmax ([1]; Sprague-Dawley, Plasma, n=5, read-out: Tmax): 25.2 ± 11.4 min
- Cmax [1, 3]: 175 ± 91.2 ng/mL
- half-life [1, 3]: 40.8 ± 2.4 min
- AUC(0-t) ([1]; Sprague-Dawley, muscle (thigh skeletal muscle), Muscle): 577 ± 298 ng·h/mL
- Tmax ([1]; Sprague-Dawley, muscle (thigh skeletal muscle), Muscle, n=5, read-out: Tmax): 19.8 ± 13.8 min
- Cmax ([1]; Abdominal adipose tissue, n=5): 221 ± 137 ng/mL
- half-life ([1]; Abdominal adipose tissue, n=5): 38.4 ± 15 min
- AUC(0-t) ([1]; Abdominal adipose tissue): 409 ± 127 ng·h/mL
- Tmax ([1]; Abdominal adipose tissue, n=5, read-out: Tmax): 25.2 ± 11.4 min
- Cmax ([1]; Aortic blood vessels, n=5): 1090 ± 760 ng/mL
- half-life ([1]; Aortic blood vessels, n=5): 27 ± 14.4 min
- AUC(0-t) ([1]; Aortic blood vessels): 1060 ± 367 ng·h/mL
- Tmax ([1]; Aortic blood vessels, n=5, read-out: Tmax): 4.8 min
- Cmax ([1]; Brown adipose tissue, n=5): 463 ± 161 ng/mL
- Cmax ([1]; Heart, n=5): 128 ± 33.6 ng/mL
- half-life ([1]; Heart, n=5): 42.6 ± 0.6 min
- AUC(0-t) ([1]; Heart): 382 ± 246 ng·h/mL
- Tmax ([1]; Heart, n=5, read-out: Tmax): 10.2 ± 11.4 min
- AUC(0-t) ([1]; Lung): 367 ± 136 ng·h/mL
- Cmax ([1]; Spleen, n=5): 198 ± 77.7 ng/mL
- half-life ([1]; Spleen, n=5): 42 ± 4.8 min
- AUC(0-t) ([1]; Spleen): 491 ± 264 ng·h/mL
- Tmax ([1]; Spleen, n=5, read-out: Tmax): 30 min
- Cmax [1, 4]: 102 ± 52 ng/mL
- half-life [1, 4]: 44.4 ± 1.8 min
- AUC(0-t) ([1]; Subcutaneous adipose tissue): 212 ± 95 ng·h/mL
- Tmax ([1]; Subcutaneous adipose tissue, n=5, read-out: Tmax): 15 ± 13.8 min
- Tmax ([1]; other tissues (not named), tissues not named separately for that alkaloid, read-out: time of peak concentration in other tissues (converted)): 30 min
- accumulation in tissues ([1]; up to 12 h): no long-term accumulation
- effect on rat CYP2C11 (rat CYP2C11): mild activation effect
- Tmax ([2]; 25 mg/kg, oral SZ-A 25 mg/kg, n=8, read-out: Tmax): 30 ± 18 min
- Tmax ([2]; 50 mg/kg, oral SZ-A 50 mg/kg, n=8, read-out: Tmax): 33.6 ± 22.2 min
- Tmax ([2]; 200 mg/kg, oral SZ-A 200 mg/kg, n=8, read-out: Tmax): 52.8 ± 16.2 min
- Tmax ([2]; 200 mg/kg, oral SZ-A 25, 50 and 200 mg/kg, read-out: time to maximum plasma concentration (Tmax), all dose groups): ≤ 52.8 min
- AUC(0-inf) ([2]; oral SZ-A 25 mg/kg): 1040 ± 356 ng·h/mL
- AUC(0-t) ([2]; oral SZ-A 25 mg/kg): 1040 ± 356 ng·h/mL
- Cmax ([2]; oral SZ-A 25 mg/kg): 616 ± 168 ng/mL
- half-life ([2]; oral SZ-A 25 mg/kg): 69.6 ± 18.6 min
- MRT last ([2]; oral SZ-A 25 mg/kg): 1.55 ± 0.23 h
- MRT inf ([2]; oral SZ-A 25 mg/kg): 1.55 ± 0.23 h
- AUC(0-inf) ([2]; oral SZ-A 50 mg/kg): 2370 ± 634 ng·h/mL
- AUC(0-t) ([2]; oral SZ-A 50 mg/kg): 2370 ± 634 ng·h/mL
- Cmax ([2]; oral SZ-A 50 mg/kg): 1250 ± 506 ng/mL
- half-life ([2]; oral SZ-A 50 mg/kg): 71.4 ± 1.8 min
- MRT last ([2]; oral SZ-A 50 mg/kg): 1.67 ± 0.61 h
- MRT inf ([2]; oral SZ-A 50 mg/kg): 1.67 ± 0.61 h
- AUC(0-inf) ([2]; oral SZ-A 200 mg/kg): 6010 ± 1650 ng·h/mL
- AUC(0-t) ([2]; oral SZ-A 200 mg/kg): 6010 ± 1650 ng·h/mL
- Cmax ([2]; oral SZ-A 200 mg/kg): 2580 ± 1250 ng/mL
- half-life ([2]; oral SZ-A 200 mg/kg): 64.8 ± 2.4 min
- MRT last ([2]; oral SZ-A 200 mg/kg): 1.97 ± 0.22 h
- MRT inf ([2]; oral SZ-A 200 mg/kg): 1.97 ± 0.22 h
- CLz ([2]; oral SZ-A 25 mg/kg): 4.71 ± 1.46 L/h/kg
- VRT(0-t) ([2]; oral SZ-A 25 mg/kg): 1.46±0.55 h^2
- VRT(0-∞) ([2]; oral SZ-A 25 mg/kg): 1.46±0.55 h^2
- Vz ([2]; oral SZ-A 25 mg/kg): 7.62 ± 2.89 L/kg
- CLz ([2]; oral SZ-A 50 mg/kg): 4.00 ± 1.04 L/h/kg
- VRT(0-t) ([2]; oral SZ-A 50 mg/kg): 1.90±2.02 h^2
- VRT(0-∞) ([2]; oral SZ-A 50 mg/kg): 1.91±2.02 h^2
- Vz ([2]; oral SZ-A 50 mg/kg): 6.88 ± 1.85 L/kg
- CLz ([2]; oral SZ-A 200 mg/kg): 6.31 ± 1.60 L/h/kg
- VRT(0-t) ([2]; oral SZ-A 200 mg/kg): 3.08±0.76 h^2
- VRT(0-∞) ([2]; oral SZ-A 200 mg/kg): 3.08±0.76 h^2
- Vz ([2]; oral SZ-A 200 mg/kg): 9.94 ± 2.86 L/kg
